In PMC12134183, “Structural analysis of full-length human transmembrane protein 94 argues against its classification as a P-type Mg^2+ ATPase” (Cell Discovery, 2025):

Target: T1, TMEM94 (Homo sapiens, UniProt Q12767)
T1 construct: full-length, purified in detergent micelles; TMD extends to residue 1356; N-glycosylated
T1 sequence (Q12767 1-1356): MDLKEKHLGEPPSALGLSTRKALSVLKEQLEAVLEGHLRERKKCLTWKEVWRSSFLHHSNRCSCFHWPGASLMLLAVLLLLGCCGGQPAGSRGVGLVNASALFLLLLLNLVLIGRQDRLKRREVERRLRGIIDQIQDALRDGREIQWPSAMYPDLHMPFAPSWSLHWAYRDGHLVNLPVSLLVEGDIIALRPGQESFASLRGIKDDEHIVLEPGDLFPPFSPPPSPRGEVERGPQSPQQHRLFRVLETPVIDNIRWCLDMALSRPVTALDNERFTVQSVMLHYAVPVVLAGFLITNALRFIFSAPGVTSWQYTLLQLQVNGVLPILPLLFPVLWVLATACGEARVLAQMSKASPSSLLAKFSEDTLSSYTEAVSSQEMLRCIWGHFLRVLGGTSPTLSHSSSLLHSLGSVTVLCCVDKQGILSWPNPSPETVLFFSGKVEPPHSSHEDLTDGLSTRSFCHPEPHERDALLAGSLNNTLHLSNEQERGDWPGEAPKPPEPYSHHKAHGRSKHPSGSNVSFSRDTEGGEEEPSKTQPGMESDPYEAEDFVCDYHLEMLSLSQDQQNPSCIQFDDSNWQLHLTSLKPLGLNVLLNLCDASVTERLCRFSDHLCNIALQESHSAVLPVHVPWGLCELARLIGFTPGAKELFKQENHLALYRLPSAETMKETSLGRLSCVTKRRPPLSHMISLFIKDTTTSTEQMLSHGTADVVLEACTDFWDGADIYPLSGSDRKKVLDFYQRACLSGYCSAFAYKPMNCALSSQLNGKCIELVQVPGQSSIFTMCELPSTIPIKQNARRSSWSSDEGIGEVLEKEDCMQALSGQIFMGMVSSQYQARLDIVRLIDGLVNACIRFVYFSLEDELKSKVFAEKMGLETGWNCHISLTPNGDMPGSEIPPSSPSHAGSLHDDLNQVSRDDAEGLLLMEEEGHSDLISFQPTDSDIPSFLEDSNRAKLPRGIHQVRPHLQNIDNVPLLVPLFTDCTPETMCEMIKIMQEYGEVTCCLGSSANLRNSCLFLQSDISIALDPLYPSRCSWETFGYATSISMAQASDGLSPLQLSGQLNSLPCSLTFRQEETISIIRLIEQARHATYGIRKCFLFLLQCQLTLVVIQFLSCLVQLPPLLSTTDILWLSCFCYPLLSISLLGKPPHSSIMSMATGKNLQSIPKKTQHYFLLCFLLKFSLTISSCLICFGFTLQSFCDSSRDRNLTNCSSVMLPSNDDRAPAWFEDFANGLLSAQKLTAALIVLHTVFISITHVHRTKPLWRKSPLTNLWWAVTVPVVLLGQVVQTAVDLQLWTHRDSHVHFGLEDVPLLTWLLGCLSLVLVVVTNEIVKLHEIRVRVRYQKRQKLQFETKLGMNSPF
Test: microscale thermophoresis (MST)
Assay type: binding

For `Nc1ncnc2c1ncn2[C@@H]1O[C@H](COP(=O)(O)OP(=O)(O)CP(=O)(O)O)[C@@H](O)[C@H]1O` [AMPPCP], the Kd was 5.48 ± 1.41 µM.
